For 11 compounds, chromatographic logP results are on record in patent publication US7629294B2, “Pyrazolopyrimidines” (Bayer CropScience LP, priority 2004, dated 2009).

The first series in a line: physchem. Particulars: logP.
One may read the chromatographic logP as a lipophilicity value derived from retention on a column. Low readings indicate a more hydrophilic compound, high ones a more lipophilic compound. `C[C@@H](Nc1c(-c2ccc(F)cc2Cl)c(Cl)nc2c(C(N)=NO)cnn12)C(C)(C)C` returned a chromatographic logP of 2.47.
Still for that read-out and setting: next, `CC(C)[C@@H](C)Nc1c(C2CCCC2)c(Cl)nc2c(C(=O)O)cnn12` [Example XV, 5-chloro-6-cyclopentyl-7-[(R)-3-methyl-2-butylamino]pyrazolo[1,5-a]pyrimidine-3-carboxylic acid]: 3.7; `C[C@@H](Nc1c(-c2ccc(F)cc2Cl)c(Cl)nc2c(-c3nsc(=O)o3)cnn12)C(C)(C)C` [Example VI]: 5.38.
Same read-out and setting: next, `C[C@@H](Nc1c(-c2ccc(F)cc2Cl)c(Cl)nc2c(C(N)=O)cnn12)C(C)(C)C`: 3.88; `COC(=O)c1cnn2c(Cl)c(-c3ccc(C#N)cc3Cl)c(Cl)nc12` [methyl 5,7-dichloro-6-(2-chloro-4-cyanophenyl)pyrazolo[1,5-a]pyrimidine-3-carboxylate]: 2.85; `CC(Nc1c(-c2ccc(F)cc2Cl)c(Cl)nc2c(Br)cnn12)C(C)(C)C` (centres unmarked) [3-bromo-5-chloro-6-(2-chloro-4-fluorophenyl)-N-(1,2,2-trimethylpropyl)pyrazolo[1,5-a]pyrimidin-7-amine]: 5.78.
On the same count and under the same terms, next, `CC(C)[C@H](C)Nc1c(C2CCCC2)c(Cl)nc2c(C(=O)O)cnn12` [Example XVI]: 3.7.

The series is the same for the next values; noted with them: logPs.
In turn, `CC1CCN(c2c(-c3ccc(F)cc3Cl)c(Cl)nc3c(S(=O)(=O)O)cnn23)CC1` [Example III, 5-chloro-6-(2-chloro-4-fluorophenyl)-7-(4-methylpiperidin-1-yl)pyrazolo[2,3-a]pyrimidine-3-sulphonic acid] yielded a chromatographic logP of 2.48.
For `CC1CCN(c2c(-c3ccc(F)cc3Cl)c(Cl)nc3c(S(C)(=O)=O)cnn23)CC1` [Example II, 5-chloro-6-(2-chloro-4-fluorophenyl)-7-(4-methylpiperidin-1-yl)-3-methylsulphonyl-pyrazolo[2,3-a]pyrimidine], the chromatographic logP was determined as 4.2.

A short description of a further series: logP (HPLC).
Settings: not given
Compound `CCOP(=O)(O)c1cnn2c(NC(C)C(C)(C)C)c(-c3ccc(F)cc3Cl)c(Cl)nc12` (centres unmarked) [Example XXIV, ethyl hydrogen {5-chloro-6-(2-chloro-4-fluorophenyl)-7-[(1,2,2-trimethylpropyl)-amino]pyrazolo[1,5-a]pyrimidin-3-yl}phosphonate] had a chromatographic logP of 3.01.
On the same count and under the same terms, next, `CCOP(=O)(OCC)c1cnn2c(NC(C)C(C)(C)C)c(-c3ccc(F)cc3Cl)c(Cl)nc12` (centres unmarked) [Example XXIII, diethyl {5-chloro-6-(2-chloro-4-fluorophenyl)-7-[(1,2,2-trimethylpropyl)-amino]pyrazolo[1,5-a]pyrimidin-3-yl}phosphonate]: 4.48.
